Source: patent publication US11844782B2, “Aqueous composition comprising dantrolene” (SPEPHARM AG, priority 2015, dated 2023)
Counter-ions that a name gives are not always drawn.

Assay: Solubility of dantrolene sodium salt with cyclodextrins at pH 6.0 to 10.0 (FIGS. 1-5, 11, 12)
Format: physicochemical
Conditions: pH 9; 2-hydroxypropyl-β-cyclodextrin 50 mg/ml, dantrolene sodium salt 1 mg/ml
Description: In these experiments four different cyclodextrins were tested in combination with dantrolene sodium salt. The concentration of the cyclodextrin compound was 50 mg/ml and the concentration of dantrolene sodium salt was 1 mg/ml. The pH values were adjusted by using a buffer composed of phosphate 25 mM and Tromethamine 25 mM in water to reach pH 6.0, 7.0, 8.0, 9.0 and 10.0, respectively. The obtained solutions were stored at room temperature and examined over the course of 10 days. The solubility of dantrolene sodium salt was determined after 24 and 48 hours. The solutions were analyzed by visual observation, whilst the content of the dantrolene sodium salt and the degradation profile were determined by HPLC and pH value monitoring.
Dantrolene content and degradation profiles were determined on an Agilent Series 1100 HPLC equipment (Agilent Technologies Inc, Santa Clara, CA, USA) fitted with a quaternary pump, an autosampler, a diode-array detector and a thermostated column compartment. Samples were analyzed on a Kinetex XB-C18 column (75×4.6 mm, 2.6 μm, Phenomenex) with mobile phases consisting of water with 0.1% formic acid (A) and acetonitrile with 0.1% formic acid (B) using a linear gradient from 15% to 45% (B) in 12 minutes. […]

solubility of the dantrolene salt: almost complete solubility
Structure (SMILES): O=C1CN(/N=C/c2ccc(-c3ccc([N+](=O)[O-])cc3)o2)C(O)=N1 [dantrolene salt, dantrolene sodium salt]
